Series [1] concerns Nitrosomonas sp. TK794. Briefly: Inhibition of Nitrosomonas sp. TK794-mediated nitrification activity assessed as nitrite nitrogen formation at 1 mg/kg after 7 to 10 days by Griess-Ilosvay method relative to control. In kind it is functional. Background: Griess reagent forms a coloured azo dye with nitrite.
The subject of series [2] is Nitrosomonas europaea. In words: Inhibition of Nitrosomonas europaea ATCC 25978-mediated nitrification activity assessed as nitrite nitrogen formation after 7 to 10 days by Griess-Ilosvay method. In kind it is functional, organism-based. The following applies: read-out: pI50 (converted).
In series [3] the test system is Nitrosomonas europaea. In words: Inhibition of Nitrosomonas europaea ATCC 25978-mediated nitrification activity assessed as nitrite nitrogen formation at 1 mg/kg after 7 to 10 days by Griess-Ilosvay method relative to control. In kind it is functional. The following applies: values are per cent of control.
Series [4] can be described thus: Octanol-water partition coefficient, log P of the compound. Format: physicochemical.
The subject of series [5] is Nitrosomonas sp. TK794. Briefly: Inhibition of Nitrosomonas sp. TK794-mediated nitrification activity assessed as nitrite nitrogen formation at 0.5 mg/kg after 7 to 10 days by Griess-Ilosvay method relative to control. In kind it is functional.
For series [6], the system named is Nitrosomonas sp. TK794. Briefly: Inhibition of Nitrosomonas sp. TK794-mediated nitrification activity assessed as nitrite nitrogen formation at 5 mg/kg after 7 to 10 days by Griess-Ilosvay method relative to control. Format: functional.
For series [7], the system named is Nitrosomonas europaea. In words: Inhibition of Nitrosomonas europaea ATCC 25978-mediated nitrification activity assessed as nitrite nitrogen formation at 0.1 mg/kg after 7 to 10 days by Griess-Ilosvay method relative to control. Format: functional. The following applies: values are per cent of control.
The test system of series [8] is Nitrosomonas europaea. In words: Inhibition of Nitrosomonas europaea ATCC 25978-mediated nitrification activity assessed as nitrite nitrogen formation at 10 mg/kg after 7 to 10 days by Griess-Ilosvay method relative to control. In kind it is functional.
The subject of series [9] is Nitrosomonas sp. TK794. Briefly: Inhibition of Nitrosomonas sp. TK794-mediated nitrification activity assessed as nitrite nitrogen formation at 500 mg/kg after 7 to 10 days by Griess-Ilosvay method relative to control. Format: functional.
Series [10] has as its system Nitrosomonas europaea. In words: Inhibition of Nitrosomonas europaea ATCC 25978-mediated nitrification activity assessed as nitrite nitrogen formation at 0.5 mg/kg after 7 to 10 days by Griess-Ilosvay method relative to control. The following applies: values are per cent of control. Format: functional.
Series [11] deals with Nitrosomonas sp. TK794. In words: Inhibition of Nitrosomonas sp. TK794-mediated nitrification activity assessed as nitrite nitrogen formation at 200 mg/kg after 7 to 10 days by Griess-Ilosvay method relative to control. Format: functional.

On to `CCCCc1nc(C(Cl)(Cl)Cl)nc(C(Cl)(Cl)Cl)n1`, for which, in the series on Nitrosomonas sp. TK794 [1], the inhibition in vivo at 1 mg/kg is 33.6%. In the series with Nitrosomonas europaea [2], the IC50 is 617 nM. For the same molecule, in the series on Nitrosomonas europaea [3], the residual activity at 1 mg/kg was found to be 29.5%. In addition, the lipophilicity (logP) in [4] (read-out: logP) is 5.65.
For the molecule `CN(C)c1nc(C(Cl)(Cl)Cl)nc(C(Cl)(Cl)Cl)n1`, the logP in [4] (read-out: logP) turned out to be 3.7. In addition, in the series with Nitrosomonas sp. TK794 [5], the inhibition in vivo at 0.5 mg/kg is 60.5%.
As for `Clc1cccc(C(Cl)(Cl)Cl)n1` [NITRAPYRIN], the inhibition in vivo at 5 mg/kg with Nitrosomonas sp. TK794 [6] is 22.9%. Moreover, in the series on Nitrosomonas europaea [2], the IC50 is 1910 nM. Further, the residual activity at 1 mg/kg with Nitrosomonas europaea [3] turned out to be 30.1%.
In the case of `CCNc1nc(C(Cl)(Cl)Cl)nc(C(Cl)(Cl)Cl)n1`, the residual activity at 0.1 mg/kg with Nitrosomonas europaea [7] worked out at 52.7%. Further, the IC50 in the series with Nitrosomonas europaea [2] is 257 nM. The logP in series [4] (read-out: logP) worked out at 3.68.
Take `CCCCCCCCCCCCNc1nc(C)nc(C(Cl)(Cl)Cl)n1`: in the series with Nitrosomonas europaea [8], the inhibition in vivo at 10 mg/kg was 69.4%. Moreover, the IC50 in the series with Nitrosomonas europaea [2] is 45700 nM. In addition, the log partition coefficient (logP) in series [4] was determined as 9.3. For the same molecule, the inhibition in vivo at 500 mg/kg with Nitrosomonas sp. TK794 [9] is 33.2%.
As for `CCCCCCNc1nc(C(Cl)(Cl)Cl)nc(C(Cl)(Cl)Cl)n1`, the IC50 with Nitrosomonas europaea [2] was 1660 nM. In addition, the residual activity at 1 mg/kg in the series with Nitrosomonas europaea [3] was 42.7%. Also, in series [4] (read-out: logP), the logP amounted to 5.79.
Take `CNc1nc(C(Cl)(Cl)Cl)nc(C(Cl)(Cl)Cl)n1`: the residual activity at 0.1 mg/kg with Nitrosomonas europaea [7] amounted to 69.6%. Also, the IC50 in the series on Nitrosomonas europaea [2] was 589 nM. Also, the logP in [4] (read-out: logP) came to 3.14.
As to `CSc1nc(C(Cl)(Cl)Cl)nc(C(Cl)(Cl)Cl)n1`, in the series with Nitrosomonas europaea [2], the IC50 is 186 nM. Moreover, the residual activity at 0.5 mg/kg in the series with Nitrosomonas europaea [10] amounted to 18.7%. In addition, in series [4] (read-out: logP), the logP turned out to be 4.21. Also, the inhibition in vivo at 0.5 mg/kg in the series with Nitrosomonas sp. TK794 [5] amounted to 41.3%.
Consider `CCCCN(C)c1nc(C)nc(C(Cl)(Cl)Cl)n1`, for which the residual activity at 0.1 mg/kg in the series on Nitrosomonas europaea [7] was 59.5%. For the same molecule, the IC50 with Nitrosomonas europaea [2] was 589 nM. The logP in series [4] (read-out: logP) turned out to be 5.65.
Turning to `CCNc1nc(-c2ccccc2)nc(C(Cl)(Cl)Cl)n1`, the residual activity at 0.1 mg/kg with Nitrosomonas europaea [7] worked out at 45.3%. Further, the IC50 in the series with Nitrosomonas europaea [2] is 380 nM. Further, the logP in [4] (read-out: logP) was found to be 5.23. Also, the inhibition in vivo at 0.5 mg/kg in the series on Nitrosomonas sp. TK794 [5] was found to be 47.8%.
For the molecule `CCCCc1nc(N)nc(C(Cl)(Cl)Cl)n1`, the inhibition in vivo at 1 mg/kg in the series on Nitrosomonas sp. TK794 [1] came out at 39.7%. The IC50 in the series on Nitrosomonas europaea [2] is 1200 nM. Further, the residual activity at 1 mg/kg with Nitrosomonas europaea [3] turned out to be 29%. Besides, the lipophilicity (logP) in series [4] (read-out: logP) is 4.4.
On to `COc1nc(C)nc(C(Cl)(Cl)Cl)n1`, for which, in series [4] (read-out: logP), the logP was 3.98. Also, the inhibition in vivo at 0.5 mg/kg in the series with Nitrosomonas sp. TK794 [5] stood at 32%.
`Cc1nc(Oc2ccc(Cl)cc2)nc(C(Cl)(Cl)Cl)n1`: the inhibition in vivo at 1 mg/kg with Nitrosomonas sp. TK794 [1] turned out to be 47%. Besides, the IC50 in the series on Nitrosomonas europaea [2] was 741 nM. The residual activity at 1 mg/kg in the series with Nitrosomonas europaea [3] was determined as 36.1%. In series [4] (read-out: logP), the logP was found to be 5.94.
As for `Nc1nc(-c2ccccc2)nc(C(Cl)(Cl)Cl)n1`, the inhibition in vivo at 5 mg/kg with Nitrosomonas sp. TK794 [6] was found to be 49.7%. For the same molecule, the IC50 with Nitrosomonas europaea [2] was 363 nM. In addition, the residual activity at 1 mg/kg in the series with Nitrosomonas europaea [3] amounted to 20.8%. For the same molecule, the logP in series [4] (read-out: logP) amounted to 4.02.
`CCOc1nc(-c2ccccc2)nc(C(Cl)(Cl)Cl)n1`: the inhibition in vivo at 1 mg/kg in the series with Nitrosomonas sp. TK794 [1] turned out to be 51.2%. Besides, in the series with Nitrosomonas europaea [2], the IC50 is 1050 nM. The residual activity at 1 mg/kg in the series on Nitrosomonas europaea [3] was 31.4%. For the same molecule, the logP in series [4] (read-out: logP) was 5.7.
For `ClC(Cl)(Cl)c1nc(-c2ccccc2)nc(C(Cl)(Cl)Cl)n1`, in the series on Nitrosomonas sp. TK794 [11], the inhibition in vivo at 200 mg/kg turned out to be 65.8%. Further, in series [4] (read-out: logP), the logP was 5.26.
`COc1nc(-c2ccccc2)nc(C(Cl)(Cl)Cl)n1`: in the series on Nitrosomonas europaea [7], the residual activity at 0.1 mg/kg is 31.4%. The inhibition in vivo at 1 mg/kg in the series with Nitrosomonas sp. TK794 [1] was 39%. In addition, the IC50 in the series on Nitrosomonas europaea [2] was 229 nM. In addition, the logP in series [4] (read-out: logP) turned out to be 5.17.
For `CCCCCCCNc1nc(C)nc(C(Cl)(Cl)Cl)n1`, the residual activity at 0.1 mg/kg in the series on Nitrosomonas europaea [7] worked out at 44.9%. In the series with Nitrosomonas europaea [2], the IC50 was 380 nM. Besides, the logP in series [4] (read-out: logP) amounted to 6.66.
With `CN(C)c1nc(-c2ccccc2)nc(C(Cl)(Cl)Cl)n1`, in the series with Nitrosomonas sp. TK794 [6], the inhibition in vivo at 5 mg/kg turned out to be 43%. The IC50 in the series with Nitrosomonas europaea [2] was 1700 nM. Further, the residual activity at 1 mg/kg in the series with Nitrosomonas europaea [3] came to 40.1%. In addition, in series [4] (read-out: logP), the logP came out at 5.4.
Turning to `COc1nc(N)nc(C(Cl)(Cl)Cl)n1`, the residual activity at 0.1 mg/kg with Nitrosomonas europaea [7] amounted to 36.1%. Moreover, the IC50 with Nitrosomonas europaea [2] is 490 nM. Further, the logP in [4] (read-out: logP) was 2.36. For the same molecule, the inhibition in vivo at 0.5 mg/kg in the series on Nitrosomonas sp. TK794 [5] was determined as 29.5%.
For `CNc1nc(-c2ccccc2)nc(C(Cl)(Cl)Cl)n1`, in the series on Nitrosomonas europaea [7], the residual activity at 0.1 mg/kg was 53.2%. Further, in the series on Nitrosomonas europaea [2], the IC50 is 372 nM. The logP in [4] (read-out: logP) was 4.7. Moreover, the inhibition in vivo at 0.5 mg/kg in the series with Nitrosomonas sp. TK794 [5] was 57.1%.
In the case of `CCCCCNc1nc(C)nc(C(Cl)(Cl)Cl)n1`, the residual activity at 0.1 mg/kg in the series with Nitrosomonas europaea [7] is 61.5%. Also, in the series with Nitrosomonas europaea [2], the IC50 is 501 nM. Moreover, in series [4] (read-out: logP), the logP amounted to 5.61.
As to `COc1nc(C(Cl)(Cl)Cl)nc(C(Cl)(Cl)Cl)n1`, the residual activity at 0.1 mg/kg in the series with Nitrosomonas europaea [7] came to 27.4%. In addition, the inhibition in vivo at 1 mg/kg in the series on Nitrosomonas sp. TK794 [1] is 47.8%. For the same molecule, in the series with Nitrosomonas europaea [2], the IC50 was 457 nM. The logP in series [4] (read-out: logP) came to 3.59.

A word on the inhibition in vivo: it is the percentage by which the read-out fell short of the control. For orientation: residual activity means the activity still measured, relative to the control. A word on the logP: it is a log measure of how a compound divides between an organic and an aqueous phase.
